Assay results as given in patent US8343978B2, “Fast onset orodispersable tablets” (Adds Pharmaceuticals LLC, priority 2008, dated 2013).
“Also recorded” adds a separate entry of the source.

Key:
[1] = Cloud point (LCST) measurement by spectrophotometry, light transmission at 750 nm; format: physicochemical; conditions: 2 wt % hydroxypropylcellulose; for Effect of modifier on the LCST of hydroxypropylcellulose (Klucel EF): 0.2M sodium citrate, 0.2M magnesium sulfate, 0.2M potassium phosphate monobasic, 0.02M calcium sulfate, 1M mannitol, 1M xylitol
Excerpt: The critical solution temperature of a polymer can be measured by spectrophotometry, by differential scanning calorimetry, or by nuclear magnetic resonance spectroscopy. For example, the spectrophotometrical method can be used to measure the cloud point of an LCST polymer. “Cloud point” generally refers to the temperature where the polymer solution in an aqueous medium becomes cloudy, indicating initiation of precipitation or flocculation of the polymer. The spectrophotometical method, as described as follows, can be adopted to screen various combinations of LCST polymers and modifiers to determine whether a modifier is capable of reducing the LCST of a polymer to about 37° C. or lower.
An LCST polymer is dissolved in distilled water and, optionally, separate solutions of LCST modifiers at various concentrations. Each polymer or polymer/modifier test solution is placed in a separate container, such as a bottle or a beaker, and each container is placed in a water bath. The water bath is equipped with a temperature regulator, and the temperature of the bath is set at approximately 60° C. (the temperature of the bath can start at a high temperature or, alternatively, the temperature of the water bath can start low and be increased gradually at a rate of, e.g., 1° C./min). While in the water bath, each test solution is circulated through a 1-cm flowthrough quartz cuvette using a peristaltic pump (Masterflex) at a flow rate of 50 ml/min. The temperature of the test solution is monitored using a thermocouple, the lead of which is inserted into the test solution in the container. Alternatively, the lead of the thermocouple can be inserted into the cuvette through tubing connecting the container and the cuvette. The light transmission (T %) of each solution is measured spectrophotometrically with a UV spectrophotometer at a wavelength of 750 nm. Initially, spectrophotometric measurements are taken at 2-3° C. intervals. Near the cloud point of a particular polymer or polymer/modifier combination, spectrophotometric measurements are taken more frequently (e.g., at 1 ° C. intervals). The cloud point is ascertained as the temperature at which the light transmission is 90% of the transmission at room temperature.

[2] = Tablet disintegration time in deionized water at 37° C., disintegration tester; format: physicochemical; conditions: 500 mg tablets, 1.3 cm diameter; 300 ml DI water at 37° C., 200 rpm paddle; n=3
Experimental: To compare the cohesive properties of the modifiers tested in Example 2, tablets containing 95 wt % of each potential LSCT modifier and 5 wt % of cross-linked sodium carboxylmethylcellulose (Croscarmellose sodium) were tested for their average disintegration time in aqueous medium using a disintegration tester (LIJ-2, Vanguard Pharmaceutical Machinery, Inc. USA). The potential LCST modifier and Croscarmellose sodium were dry-blended in a vial and 500 mg of each blend were compressed under 1 metric ton of compression pressure using a 1.3 cm diameter rounding tool. The resulting tablets were placed into 300 ml of deionized (DI) water (at 37° C., agitated using a 200 rpm paddle) and the disintegration times of the tablets (i.e., the time that it took for each tablet to completely dissolve) were measured. Disintegration times were measured for three tablets of each modifier and average disintegration rates and standard deviates were determined. […]
An orally disintegrating placebo tablet comprising hydroxypropylcellulose as the LCST polymer and calcium sulfate as the modifier was manufactured as follows. […] The mean disintegration time of the tablets (n=3) was 35 seconds, with standard deviation of 4 seconds, as measured in de-ionized water at 37° C. using a disintegration tester (LIJ-2, Vanguard Pharmaceutical Machinery, Inc. USA). […]

Row | SMILES | Effect of modifier on the LCST of hydroxypropylcellulose (Klucel EF) [1] | Effect of electrolyte modifier on the LCST of hydroxypropylcellulose, compared at equal concentration ([1]; electrolytes at 0.02M) | Disintegration time of tablets of 95 wt % modifier and 5 wt % Croscarmellose sodium [2] | Effect of modifier on the LCST of hydroxypropylcellulose (Klucel EF) ([1]; listed as potassium phosphate (monobasic))
1 | O=S(=O)([O-])[O-].[Ca+2] [calcium sulfate] | significantly reduce the LCST; also recorded: capable of reducing the LCST of hydroxypropylcellulose | most effective reducer; also recorded: strongest effect on reducing the LCST | one | –
2 | O=S(=O)([O-])[O-].[Mg+2] [magnesium sulfate] | significantly reduce the LCST; also recorded: capable of reducing the LCST of hydroxypropylcellulose | – | – | –
3 | OC[C@@H](O)[C@@H](O)[C@H](O)[C@H](O)CO [mannitol] | significantly reduce the LCST; also recorded: capable of reducing the LCST of hydroxypropylcellulose | – | – | –
4 | O=P([O-])(O)O.[K+] [potassium phosphate monobasic] | capable of reducing the LCST of hydroxypropylcellulose | – | one | significantly reduce the LCST
5 | O=C([O-])CC(O)(CC(=O)[O-])C(=O)[O-].[Na+].[Na+].[Na+] [sodium citrate] | significantly reduce the LCST; also recorded: capable of reducing the LCST of hydroxypropylcellulose | – | – | –
6 | OC[C@@H](O)[C@H](O)[C@@H](O)CO [xylitol] | significantly reduce the LCST; also recorded: capable of reducing the LCST of hydroxypropylcellulose | – | – | –
